Read-outs that look alike come from different tables or passages of the source.
What was measured:
[1] = FL response of probe to D-fructose in carbonate buffer
[2] = FL response of probe to D-mannose in carbonate buffer; conditions: TPEMB 10 μM, 10 vol % DMSO, any amount
[3] = FL response of probe to D-galactose in carbonate buffer; conditions: TPEMB 10 μM, 10 vol % DMSO, any amount
[4] = FL response of TPE boronic acid probe to D-glucose in carbonate buffer
Description: The present subject matter in one embodiment relates to a selective detection of D-glucose (D-Glu) by TPEDB probe in a sample with its fluorescence enhancement. The concentration or level of D-Glu detectable in a sample is not particularly limited, but is preferably about 0.2 mM or more. […] When 0.2 mM Glu was added, however, the FL spectrum of TPEDB was intensified. The FL intensity increased with an increase in the amount of Glu. At [Glu]=5 mM, the solution of TPEDB became very emissive, with an intensity ca. 5.4-fold higher than that in the absence of Glu.
(§1) Into a 100 mL volumetric flask were added 1.120 g of K2CO3, 0.190 g of KHCO3 and 80 mL of deionized water. After adding 3 mL of DMSO into the carbonate buffer, 1 mL of the stock solution of TPEDB in DMSO (10 mM) was added under stirring. The volume of the solution was increased to 100 mL by adding an appropriate amount of deionized water. The resultant solution of TPEDB (0.1 mM) in the carbonate buffer (pH 10.5) was stirred for 15 min before use.
Into a 25 mL volumetric flask was added 90 mg of a saccharide (Glu, Fru, Gal or Man) and 25 mL of deionized water. An aliquot of the resultant stock solution (20 mM) was diluted in another volumetric flask to obtain a sample solution with a desired concentration (2.0 mM, 0.20 mM, 20 μM or 2.0 μM).
An aliquot (2.0 mL) of the stock solution of TPEDB (0.1 mM) in the carbonate buffer containing 4 vol % DMSO and 2.0 mL of the stock solution of Glu (20 mM) were added into a 10 mL volumetric flask. After shaking for a few seconds, a solution of TPEDB (50 μM) with 10 mM of Glu in the carbonate buffer containing 2 vol % DMSO was obtained. The solution was allowed to stand for 30 min before its FL measurement.
To prepare a solution of TPEDB (50 μM) with 8 mM of Glu in the carbonate buffer containing 2 vol % DMSO, 1.6 mL of the stock solution of Glu (20 mM) and 0.4 mL of deionized water were added to 2.0 mL of a stock solution of TPEDB (0.1 mM) in the carbonate buffer containing 4 vol % DMSO.

[5] = FL response of TPEDB to Glu in the presence of a saccharide interferent
Description: In the presence of Fru, the FL spectrum of TPEDB was gradually intensified by the addition of Glu, but the rate of increase in the intensity was lower because of the competition between Glu and Fru to bind with TPEDB. Similarly, Gal and Man interfered with the FL response of TPEDB to Glu, although the effects were smaller.
Solutions of Glu (40 mM-4.0 μM), Fru (0.4 mM), Gal (0.4 mM) and Man (0.4 mM) in deionized water were prepared. An aliquot (2.0 mL) of the solution of TPEDB (0.1 mM) in the carbonate buffer containing 4 vol % DMSO was added into a 10 mL volumetric flask, followed by the addition of 1.0 mL of a solution of Fru (0.4 mM) and 1.0 mL of a solution of Glu (40 mM). After shaking for a few seconds, a solution of TPEDB (50 μM) with 10 mM of Glu and 0.1 mM of Fru in the carbonate buffer containing 2% DMSO was obtained. The solution was allowed to stand for 30 min before its FL measurement. The solution of TPEDB and Glu containing another saccharide (Gal or Man) was prepared by similar procedures.

[6] = Miscibility / solubility of TPEDB in aqueous media; assay type: physicochemical
Source text: (§2) The light emission of TPEDB started to decrease in intensity when the pH of the buffer was raised to >8.61 and became very weak at pH≧9.74. Since the pKa of PBA is ca. 9, TPEDB was ionized by the alkaline medium and became soluble in the buffers with high pH. The solutions of TPEDB were virtually nonfluorescent, while its aggregates were highly emissive, proving that TPEDB, like its parent form TPE, is AIE-active.

[7] = Detection of Glu in artificial urine by TPEDB; conditions: TPEDB 50 μM, carbonate buffer with artificial urine
Description: To explore the potential of TPEDB for real-world applications, the possibility of using TPEDB for detection of Glu in urine was tested. […] The profile of the I/I0 versus [Glu] plot for the urine Glu, however, was different from that for the “pure” Glu (in the carbonate buffer without urine) in the high-[Glu] region. Although the exact reason for this is unclear at the present time, it may be caused by the interactions of urea, α-hydroxycarboxylic acids, and salts in the urine with the boronate units of TPEDB.
An artificial urine was prepared according to the recipe reported by Keevil et al. and Whitesides et al (C. W. Keevil, et al, Lett. Appl. Microbiol. 1997. 24, 203; G. M. Whitesides, et al, Proc. Natl. Acad. Sci. U.S.A. 2008, 105, 19606). 1.1 mM Lactic acid, 2.0 mM citric acid, 25 mM sodium bicarbonate, 170 mM urea, 2.5 mM calcium chloride, 90 mM sodium chloride, 2.0 mM magnesium sulfate, 7.0 mM potassium dihydrogen phosphate, 7.0 mM dipotassium hydrogen phosphate, 10 mM sodium sulfate, and 25 mM ammonium chloride were mixed in deionized water. The pH value of the solution was adjusted to 6.0 by the addition of 1.0 M hydrochloric acid. […]
An aliquot (1 mL) of the artificial urine solution with a desired concentration of Glu was added to 2 mL solution of TPEDB (100 μM) in the carbonate buffer containing 4 vol % DMSO. […] FL spectrum of the mixture was measured after stirring for 30 min.

[8] = FL intensity of TPEDB in Britton-Robinson buffers at different pH; assay type: physicochemical
Description: as §2
as §1, with “4.0 mg NaOH” for “1.120 g of K2CO3, 0.190 g of KHCO3”, “NaOH solution (0.001M) containing 4 vol % DMSO” for “carbonate buffer (pH 10.5)”
Into a 100 mL volumetric flask were added 4.611 H3PO4, 2.402 g CH3COOH, and 2.473 g B(OH)3, and the volume of the solution was increased to 100 mL by adding appropriate amount of deionized water. The resultant solution of the acid mixture (0.4 M) was stirred for 15 min before use. Into a 100 mL volumetric flask was added 1.600 g NaOH, and the volume of the solution was increased to 100 mL by adding appropriate amount of deionized water. The resultant solution of base (0.4 M) was stirred for 15 min before use. An aliquot (0.4 mL) of the solution of acid mixture (0.4 M) and appropriate amount of the solution of NaOH (0.4 M) from 0 mL to 1.6 mL were added into a 10 mL volumetric flask. The volume of the solution was increased to 2.0 mL by adding an appropriate amount of deionized water. The resultant standard Britton-Robinson buffer (0.08 M) with various pH was left to stand for a few minutes before use.
An aliquot (2.0 mL) of the stock solution of TPEDB (0.1 mM) in the NaOH solution (0.001M) containing 4 vol % DMSO and 2.0 mL of the standard Britton-Robinson buffer (0.08 M) with various pH were added into a 10 mL volumetric flask. After shaking for a few seconds, solutions of TPEDB (50 μM) with various pH in the Britton-Robinson buffer containing 2 vol % DMSO were obtained. The solutions were allowed to stand for 30 min, and their FL spectra were measured before the pH values were measured using pH-meter.

[9] = cited from earlier work
[10] = cited from earlier work; remark: listed apart in the source
[11] = Britton-Robinson buffer, 2 vol % DMSO

OB(O)c1ccc(C(=C(c2ccccc2)c2ccccc2)c2ccccc2)cc1 [TPEMB, 4-(1,2,2-triphenylvinyl)phenylboronic acid]
Emission on addition of Fru ([1]; TPEMB 10 μM, carbonate buffer, 10 vol % DMSO, any amount): remained nonemissive
Emission on addition of Man [2]: remained nonemissive
Emission on addition of Gal [3]: remained nonemissive
Change in FL spectrum on addition of Glu ([4]; TPEMB 10 μM, carbonate buffer, 10 vol % DMSO, wide [Glu] range): little change

OB(O)c1ccc(C(=C(c2ccccc2)c2ccc(B(O)O)cc2)c2ccccc2)cc1 [TPEDB, (1,2-diphenylethene-1,2-diyl)bis(1,4-phenylene)-1,1′-diboronic acid]
Interference of the isomeric saccharides to the FL response to Glu ([5]; 0.1 mM Fru, Gal or Man interferent, TPEDB 50 μM, carbonate buffer): almost no interference
Affinity order of saccharide to TPEDB ([5]; suggested from interference data): Fru>Gal≈Man>Glu
Solubility in alkaline aqueous media ([6]; alkaline aqueous media containing small amount of DMSO): readily soluble
Miscibility with water ([6]; water): immiscible with water
Change of emission spectrum on addition of Fru ([1]; 10 mM Fru, TPEDB in carbonate buffer): only slightly intensified
Effect of Glu in artificial urine on FL spectrum [7]: augmented its FL spectrum
Glu concentration at which the FL spectrum of TPEDB was intensified (below it almost no change) ([4]; TPEDB 50 μM, carbonate buffer pH 10.5): 0.2 mM
[Glu] at which FL intensity reaches its maximum ([4]; TPEDB 50 μM, carbonate buffer pH 10.5, intensity decreases above): 5 mM
pH below which the luminogen is highly emissive [8]: < 9.0
pH above which light emission started to decrease in intensity [8, 11]: > 8.61
pH at which light emission became very weak [8, 11]: ≥ 9.74
Emission of aggregates suspended in acidic buffer ([8]; pH 4.34): strong blue light

OB(O)c1ccccc1 [PBA, phenylboronic acid]
Ka,sugar/Ka,Glu ([9]; Fru): 34.8
Ka,sugar/Ka,Glu ([9]; Gal): 3.3
Ka,sugar/Ka,Glu ([9]; Man): 2.8
pKa [10]: ca. 9
